Laboratory results taken from US11396518B2, “Solid forms of thiophene derivatives” (TIANJIN HEMAY PHARMACEUTICAL CO., LTD., priority 2018, dated 2022).

Legend:
Assay type in all cases: physicochemical
[1] = Dissolution rate in water; details: about 25 mg in 900 mL of water, 37° C., rotating speed 100/minute
Procedure: An amorphous solid form of (S)—N-[5-[1-(3-ethoxy-4-methoxyphenyl)-2-(methylsulfonyl)ethyl]-4,6-dioxo-5,6-dihydro-4H-thieno[3,4-c]pyrrole-1-yl]acetamide prepared according to the process in Example 1 was tested.
About 25 mg of the amorphous solid form of (S)—N-[5-[1-(3-ethoxy-4-methoxyphenyl)-2-(methylsulfonyl)ethyl]-4,6-dioxo-5,6-dihydro-4H-thieno[3,4-c]pyrrole-1-yl]acetamide was added to 900 mL of water. The mixture was stirred at a rotating speed of 100/minute at 37° C. for 90 minutes. The supernatant was filtered and diluted. The concentration of the diluted solution (a mg/mL) was determined by ultraviolet spectrophotometer. The dissolution rate was calculated according to the formula 900a/25×100%.

[2] = Hygroscopicity (XRPD after moisture absorption at RH=80%)
Procedure: Hygroscopicity of an amorphous solid form of (S)—N-[5-[1-(3-ethoxy-4-methoxyphenyl)-2-(methylsulfonyl)ethyl]-4,6-dioxo-5,6-dihydro-4H-thieno[3,4-c]pyrrole-1-yl]acetamide was studied. The amorphous solid form of (S)—N-[5-[1-(3-ethoxy-4-methoxyphenyl)-2-(methylsulfonyl)ethyl]-4,6-dioxo-5,6-dihydro-4H-thieno[3,4-c]pyrrole-1-yl]acetamide was placed in a drier containing saturated ammonium chloride solution (RH=80%) until weight was balanced. The crystal form was tested with XRPD.
An amorphous solid form of (S)—N-[5-[1-(3-ethoxy-4-methoxyphenyl)-2-(methylsulfonyl)ethyl]-4,6-dioxo-5,6-dihydro-4H-thieno[3,4-c]pyrrole-1-yl]acetamide prepared according to the process of Example 1 was tested.

[3] = Pressure stability (DSC after tablet pressing); details: tablet press machine with single punch, tablet diameter 6 mm, hardness 25-30 N
Procedure: An amorphous solid form of (S)—N-[5-[1-(3-ethoxy-4-methoxyphenyl)-2-(methylsulfonyl)ethyl]-4,6-dioxo-5,6-dihydro-4H-thieno[3,4-c]pyrrole-1-yl]acetamide was pressed by tablet press machine with single punch. The diameter of the tablet was 6 mm and the hardness was 25-30 N. DSC test was carried out on pressed powder.

[4] = Grinding stability (XRPD after grinding)
Procedure: An amorphous solid form of (S)—N-[5-[1-(3-ethoxy-4-methoxyphenyl)-2-(methylsulfonyl)ethyl]-4,6-dioxo-5,6-dihydro-4H-thieno[3,4-c]pyrrole-1-yl]acetamide prepared according to the process of Example 1 was ground in a glass mortar for 5 minutes. The ground samples were tested with XRPD.

CCOc1cc([C@@H](CS(C)(=O)=O)N2C(=O)c3csc(NC(C)=O)c3C2=O)ccc1OC [amorphous solid form, (S)—N-[5-[1-(3-ethoxy-4-methoxyphenyl)-2-(methylsulfonyl)ethyl]-4,6-dioxo-5,6-dihydro-4H-thieno[3,4-c]pyrrole-1-yl]acetamide]
Dissolution Rate (%) ([1]; Time 0 min): 0% | Dissolution Rate (%) ([1]; Time 15 min): 38.3% | Dissolution Rate (%) ([1]; Time 30 min): 54.9% | Dissolution Rate (%) ([1]; Time 45 min): 72.8% | Dissolution Rate (%) ([1]; Time 60 min): 63.7% | Moisture absorption stability (conclusion in words) ([2]; RH=80% until weight was balanced): good moisture absorption stability | Crystal Form after Absorbing Moisture ([2]; drier with saturated ammonium chloride solution (RH=80%) until weight was balanced): Amorphous | DSC curve of pressed powder compared with FIG. 2 [3]: substantially identical | Pressure stability (conclusion in words) [3]: good stability | Crystal Form after Grinding ([4]; Grinding in a glass mortar for 5 minutes): Amorphous | Grinding stability (conclusion in words) ([4]; ground in a glass mortar for 5 minutes): good grinding stability
